Data: patent publication US20240124442A1, “TRICYCLIC-AMIDO-BICYCLIC PRMT5 INHIBITORS” (AMGEN INC., priority 2021, published 2024)

Legend:
[1] = tested on: HCT116 WT cells; assay: HCT116 WT (parent) cell line proliferation / cell viability (CellTiter-Glo, 6 days); assay type: cell-based; conditions: Homo sapiens, HCT-116, 144 h, 6 days treatment
How it was run: (§1)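 Viability read by CellTiter-Glo luminescence after 6 days of compound treatment of HCT116 WT and MTAP-null cells (RPMI 1640, 10% FBS). Dose series were 1:3 steps from 1 or 10 μM (8–9 points), or 1:2 steps from 10 or 50 μM (22 points). IC50 from 4-parameter logistic or fixed-slope sigmoidal fit.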

[2] = tested on: HCT116 MTAP null cells; assay: HCT116 MTAP null cell line proliferation / cell viability (CellTiter-Glo, 6 days); assay type: cell-based; conditions: 144 h; HCT116 MTAP null cells, 6 days treatment, CellTiter-Glo cell viability; read-out: HCT-116 MTAP null IC50
How it was run: as §1

Structure (SMILES) | IC50 [1] [nM] | IC50 [2] [nM]
C[C@H]1OCc2c1c(N)nc1ccc(C(=O)N(C)[C@@H]3COc4cc(-c5cnn(C)c5)ccc43)cc21 [Example 204, (3R)-4-amino-N,3-dimethyl-N-((3S)-6-(1-methyl-1H-pyrazol-4-yl)-2,3-dihydro-1-benzofuran-3-yl)-1,3-dihydrofuro[3,4-c]-quinoline-8-carboxamide] | 4390 | 31
Cc1noc2c1c(N)nc1ccc(C(=O)N(C)[C@@H]3COCc4cc(C#N)ccc43)cc12 [Example 497, 4-amino-N-((4S)-7-cyano-3,4-dihydro-1H-2-benzopyran-4-yl)-N,3-dimethyl[1,2]oxazolo[4,5-c]quinoline-8-carboxamide] | 19700 | 350
CN(C(=O)c1ccc2nc(N)c3cnn(C)c3c2c1)[C@@H]1CCOCc2nc(C(F)(F)F)ccc21 (single isomer, unassigned) [Example 441] | 9310 | 181
CN(C(=O)c1cc2c(cc1Cl)nc(N)c1cnn(C)c12)[C@@H]1COc2cc(C(F)(F)F)ccc21 [Example 480, 4-amino-7-chloro-N,1-dimethyl-N-((3S)-6-(trifluoromethyl)-2,3-dihydro-1-benzofuran-3-yl)-1H-pyrazolo[4,3-c]quinoline-8-carboxamide] | 43 | 4
CN(C(=O)c1cc2c(cc1F)nc(N)c1cnn(C)c12)[C@@H]1COc2cc(S(C)(=O)=O)ccc21 (single isomer, unassigned) [Example 378] | 239 | 10
Nc1nc2ccc(C(=O)N(C3CC3)C3COc4cc(C(F)(F)F)ccc43)cc2c2c1COC2 (racemic) [Example 449, 4-amino-N-cyclopropyl-N-((3R)-6-(trifluoromethyl)-2,3-dihydro-1-benzofuran-3-yl)-1,3-dihydrofuro[3,4-c]quinoline-8-carboxamide and 4-amino-N-cyclopropyl-N-((3S)-6-(trifluoromethyl)-2,3-dihydro-1-benzofuran-3-yl)-1,3-dihydrofuro[3,4-c]quinoline-8-carboxamide] | 3350 | 96
CN(C(=O)c1cc2c3c(c(N)nc2cn1)COC3)[C@@H]1COc2cc(S(F)(F)(F)(F)F)ccc21 (single isomer, unassigned) [Example 343] | 581 | 19
CN(C(=O)c1ccc2nc(N)c3cnn(C)c3c2c1)[C@@H]1COc2cc(C(F)(F)F)ncc21 [Example 227, 4-amino-N,1-dimethyl-N-((3S)-6-(trifluoromethyl)-2,3-dihydrofuro[3,2-c]pyridin-3-yl)-1H-pyrazolo[4,3-c]-quinoline-8-carboxamide] | 1480 | 19

Results, then the molecule that gave them:

IC50 [1] [nM] | IC50 [2] [nM] | Structure (SMILES)
17400 | 374 | CN(C(=O)c1ccc2nc(N)c3c(cnn3C)c2c1)[C@@H]1COCc2cc(C(F)(F)F)ncc21 [Example 511, 4-amino-N,3-dimethyl-N-((4S)-7-(trifluoromethyl)-3,4-dihydro-1H-pyrano[4,3-c]pyridin-4-yl)-3H-pyrazolo[3,4-c]quinoline-8-carboxamide]
447 | 8 | CN(C(=O)c1ccc2nc(N)c3cnn(C)c3c2c1)[C@@H]1COc2cc(-c3cnccc3C(F)(F)F)ccc21 [Example 650, 4-amino-N,1-dimethyl-N-((3S)-6-(4-(trifluoromethyl)-3-pyridinyl)-2,3-dihydro-1-benzofuran-3-yl)-1H-pyrazolo[4,3-c]quinoline-8-carboxamide]
275 | 5 | CN(C(=O)c1cc2c(cc1F)nc(N)c1cnn(C)c12)[C@@H]1COCc2cc(C#N)ccc21 (single isomer, unassigned) [Example 595]
634 | 6 | CN(C(=O)c1ccc2nc(N)c3cnn(C)c3c2c1)[C@@H]1COc2cc(-c3cnn(C(F)(F)F)c3)ccc21 [Example 620, 4-amino-N,1-dimethyl-N-((3S)-6-(1-(trifluoromethyl)-1H-pyrazol-4-yl)-2,3-dihydro-1-benzofuran-3-yl)-1H-pyrazolo[4,3-c]quinoline-8-carboxamide]
